Source: patent US11773129B2, “Methods of preventing or treating atherosclerosis with inhibitors of specific isoenzymes of human neuraminidase” (THE GOVERNORS OF THE UNIVERSITY OF ALBERTA, priority 2017, dated 2023)
Like-named read-outs stand apart in the source and are kept apart here.

Assays:
Assay type in all cases: biochemical
NEU1 = target: T1, NEU1 (Homo sapiens, UniProt Q99519); assay: IC50 inhibition assay using 4MU-NANA as the substrate, NEU1
T1 construct: made in house; host or cells: HEK293 (lentiviral transduction), crude lysate
Procedure: Two weeks after transduction cells were harvested and a crude lysate showing ˜200 nmol/h mg of sialidase activity used in experiments.
Assays were performed with duplicates for each point and IC50 was obtained by plotting the data with Graphpad™ Prism 5.0.

NEU4 = target: T2, NEU4 (Homo sapiens, UniProt Q8WWR8); assay: IC50 inhibition assay using 4MU-NANA as the substrate, NEU4; set-up: GST; made in house; host or cells: E. coli; details: 4MU-NANA as the substrate; read-out: IC50 NEU4
T2 sequence (Q8WWR8 1-484): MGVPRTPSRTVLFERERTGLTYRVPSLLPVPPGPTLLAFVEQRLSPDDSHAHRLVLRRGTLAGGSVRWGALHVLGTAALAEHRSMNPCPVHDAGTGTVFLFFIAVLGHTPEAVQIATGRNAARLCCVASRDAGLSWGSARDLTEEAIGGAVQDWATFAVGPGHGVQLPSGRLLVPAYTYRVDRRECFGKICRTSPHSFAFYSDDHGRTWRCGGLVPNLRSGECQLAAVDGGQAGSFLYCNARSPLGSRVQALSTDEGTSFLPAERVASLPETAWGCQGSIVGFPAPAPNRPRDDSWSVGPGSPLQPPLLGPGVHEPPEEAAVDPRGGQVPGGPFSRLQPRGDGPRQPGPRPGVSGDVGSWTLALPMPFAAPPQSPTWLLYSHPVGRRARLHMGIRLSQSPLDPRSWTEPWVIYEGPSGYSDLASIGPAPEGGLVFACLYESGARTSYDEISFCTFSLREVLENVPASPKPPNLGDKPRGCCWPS

NEU1, NEU2, NEU3, NEU4 = assay: Isoenzyme specificity/selectivity from 4MU-NANA IC50 across the four human neuraminidases
NEU3 = target: T3, NEU3 (Homo sapiens, UniProt Q9UQ49); assay: IC50 inhibition assay using 4MU-NANA as the substrate, NEU3; set-up: MBP (N); made in house; host or cells: E. coli; details: 4MU-NANA as the substrate; read-out: IC50 NEU3
T3 sequence (Q9UQ49 1-428): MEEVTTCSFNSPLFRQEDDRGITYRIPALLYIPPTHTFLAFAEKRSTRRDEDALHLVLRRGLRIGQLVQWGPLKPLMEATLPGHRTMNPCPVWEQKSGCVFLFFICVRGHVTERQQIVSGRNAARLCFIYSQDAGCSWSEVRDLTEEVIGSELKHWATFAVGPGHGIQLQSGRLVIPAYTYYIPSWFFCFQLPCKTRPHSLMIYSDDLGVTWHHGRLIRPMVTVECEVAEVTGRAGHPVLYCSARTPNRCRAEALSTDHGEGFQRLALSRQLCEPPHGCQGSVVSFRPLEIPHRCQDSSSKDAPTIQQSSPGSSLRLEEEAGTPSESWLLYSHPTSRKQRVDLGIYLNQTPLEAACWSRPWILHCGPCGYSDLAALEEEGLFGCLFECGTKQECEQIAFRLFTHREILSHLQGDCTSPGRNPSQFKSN

[1] = 4MU-NANA as the substrate, read-out: IC50 NEU1
[2] = isoenzyme(s) the compound is specific for, dual (bispecific) when ratio of IC50 is about 3 or less

IC50 (NEU1; [1]) [µM] | IC50 (NEU4) [µM] | Target (NEU1, NEU2, NEU3, NEU4; [2]) | IC50 (NEU3) [µM] | IC50 (NEU1; target isoenzyme NEU1, 4MU-NANA substrate, read-out: IC50 [μM] NEU1) [µM] | Structure (SMILES) | Target (NEU1, NEU2, NEU3, NEU4)
5.3 ± 0.8 | 71 ± 17 | NEU1 | > 500 |  | CC(C)C(=O)N[C@H]1[C@H]([C@H](O)[C@H](O)CO)OC(C(=O)O)=C[C@@H]1O [compound 34, 5-isobutyramido-2,6-anhydro-3,5-dideoxy-D-glycero-D-galacto-non-2-enonic acid] | 
2.5 ± 0.3 | 130 ± 40 |  | 72 ± 20 |  | CC(=O)N[C@@H]1C(O)C=C(C(=O)O)OC1C(O)C(O)CNC(=O)CC(C)C (stereo partly drawn) [compound 54, 5-Acetamido-9-(3-methylbutanamido)-2,6-anhydro-3,5-dideoxy-D-glycero-D-galacto-non-2-enonic acid] | 
0.35 ± 0.03 | > 500 | NEU1 |  |  | CCCCC(=O)N[C@H]1[C@H]([C@H](O)[C@H](O)CNC(C)=O)OC(C(=O)O)=C[C@@H]1O [compound 67, 5-Pentanamido-9-acetamido-2,6-anhydro-3,5-dideoxy-D-glycero-D-galacto-non-2-enonic acid] | 
> 500 | > 500 |  | > 500 |  | CC(=O)N[C@H]1[C@H]([C@H](O)[C@H](O)CO)OC(C(=O)O)=C[C@@H]1NC(=O)C1CCC1 [25d, 5-Acetamido-2,6-anhydro-4-cyclobutanecarboxamido-3,4,5-trideoxy-D-glycero-D-galacto-non-2-enonic acid] | 
> 500 | 110 ± 20 |  | > 500 |  | Cc1ccc(-c2cn(CC(=O)N[C@@H]3C(O)C=C(C(=O)O)OC3C(O)C(O)CO)nn2)cc1 (some centres unmarked) [compound 42] | 
12 ± 2 | 81 ± 15 | NEU1 | 100 ± 20 |  | O=C(O)C1=C[C@H](O)[C@@H](NC(=O)C2CCC2)[C@H]([C@H](O)[C@H](O)CO)O1 [compound 38, 5-Cyclobutanecarboxamido-2,6-anhydro-3,5-dideoxy-D-glycero-D-galacto-non-2-enonic acid] | 
> 500 | > 500 |  | > 500 |  | CCCCC(=O)N[C@H]1C=C(C(=O)O)O[C@@H]([C@H](O)[C@H](O)CO)[C@@H]1NC(C)=O [25b, 5-Acetamido-2,6-anhydro-4-pentanamido-3,4,5-trideoxy-D-glycero-D-galacto-non-2-enonic acid] | 
0.58 ± 0.03 |  |  | < 1 |  | CCCCC(CC)C(=O)N[C@H]1[C@H]([C@H](O)[C@H](O)CO)OC(C(=O)O)=C[C@@H]1O (mixture of isomers) [compound 75, 5-(2-Ethyl)hexanamido(SIR)-2,6-anhydro-3,5-dideoxy-d-glycero-d-galacto-non-2-enonic acid] | 
> 500 | > 500 |  | > 500 |  | CCC(=O)N[C@H]1C=C(C(=O)O)O[C@@H]([C@H](O)[C@H](O)CO)[C@@H]1NC(C)=O [25a, 5-Acetamido-2,6-anhydro-4-propionamido-3,4,5-trideoxy-D-glycero-D-galacto-non-2-enonic acid] | 
24 ± 2 | 5.6 ± 0.8 |  | 4.4 ± 0.9 |  | [N-]=[N+]=NCC(=O)N[C@@H]1C(O)C=C(C(=O)O)OC1C(O)C(O)CO (stereo partly drawn) [compound 40, 5-(N-2-azidoacetyl)-2,3,5-trideoxy-D-glycero-D-galacto-2-nonulopyranosonic acid] | 
> 500 | 130 ± 20 |  | 430 ± 100 |  | Nc1ccc(-c2cn(CC(=O)N[C@@H]3C(O)C=C(C(=O)O)OC3C(O)C(O)CO)nn2)cc1 (some centres unmarked) [compound 46] | 
 | 230 ± 60 |  | 96 ± 28 |  | CC(=O)N[C@@H]1C(O)C=C(C(=O)O)OC1C(O)C(O)CNC(=O)C(C)C (stereo partly drawn) [compound 53, 5-Acetamido-9-isobutyramido-2,6-anhydro-3,5-dideoxy-D-glycero-D-galacto-non-2-enonic acid] | 
0.42 ± 0.06 | 440 ± 150 | NEU1 |  | 0.4 | CCCCCC(=O)N[C@H]1[C@H]([C@H](O)[C@H](O)CO)OC(C(=O)O)=C[C@@H]1O [compound 32, 5-Hexanamido-2,6-anhydro-3,5-dideoxy-D-glycero-D-galacto-non-2-enonic acid] | 
0.4 ± 0.1 | 270 ± 70 | NEU1 |  |  | CCCCCC(=O)N[C@H]1[C@H]([C@H](O)[C@H](O)CNC(=O)CC)OC(C(=O)O)=C[C@@H]1O [compound 69, 5-Hexanamido-9-propionamido-2,6-anhydro-3,5-dideoxy-d-glycero-d-galacto-non-2-enonic acid] | 
0.55 ± 0.07 |  |  | < 1 |  | CCCCC(C)C(=O)N[C@H]1[C@H]([C@H](O)[C@H](O)CO)OC(C(=O)O)=C[C@@H]1O (mixture of isomers) [compound 72, 5-(2-Methyl)hexanamido(S/R)-2,6-anhydro-3,5-dideoxy-d-glycero-d-galacto-non-2-enonic acid] | 
> 500 | > 500 |  | > 500 |  | CC(=O)N[C@H]1[C@H]([C@H](O)[C@H](O)CO)OC(C(=O)O)=C[C@@H]1NC(=O)C1CC1 [25c, 5-Acetamido-2,6-anhydro-4-cyclopropanecarboxamido-3,4,5-trideoxy-b-glycero-D-galacto-non-2-enonic acid] | 
0.42 ± 0.07 |  |  | < 1 |  | CCCCC(C)C(=O)N[C@H]1[C@H]([C@H](O)[C@H](O)CNC(C)=O)OC(C(=O)O)=C[C@@H]1O (mixture of isomers) [compound 74, 5-(2-Methyl)hexanamido(S/R)-9-acetanamido-2,6-anhydro-3,5-dideoxy-d-glycero-d-galacto-non-2-enonic acid] | 
14 ± 2 | 47 ± 7 |  | 150 ± 20 |  | CC(C)CCC(=O)N[C@H]1[C@H]([C@H](O)[C@H](O)CO)OC(C(=O)O)=C[C@@H]1NC(=N)N [compound 71, 5-(4-methylpentanamido)-2,6-anhydro-4-guanidino-3,4,5-trideoxy-D-glycero-D-galacto-non-2-enonic acid] | 
0.14 ± 0.01 | 170 ± 100 | NEU1 |  |  | CCCCCC(=O)N[C@H]1[C@H]([C@H](O)[C@H](O)CNC(C)=O)OC(C(=O)O)=C[C@@H]1O [compound 68, 5-Hexanamido-9-acetamido-2,6-anhydro-3,5-dideoxy-D-glycero-D-galacto-non-2-enonic acid] | 
4 ± 0.5 |  |  | 250 ± 90 |  | CCCC(=O)NCC(O)C(O)C1OC(C(=O)O)=CC(O)[C@H]1NC(C)=O (stereo partly drawn) [compound 49, 5-Acetamido-9-butyramido-2,6-anhydro-3,5-dideoxy-D-glycero-D-galacto-non-2-enonic acid] | 
1.8 ± 0.2 |  |  |  |  | CCCCC(CC)C(=O)N[C@H]1[C@H]([C@H](O)[C@H](O)CNC(C)=O)OC(C(=O)O)=C[C@@H]1O (mixture of isomers) [compound 73, 5-(2-Ethyl)hexanamido(S/R)-9-acetanamido-2,6-anhydro-3,5-dideoxy-d-glycero-d-galacto-non-2-enonic acid] | 

Structure (SMILES) | IC50 (NEU1; [1]) [µM] | IC50 (NEU4) [µM] | Target (NEU1, NEU2, NEU3, NEU4; [2]) | IC50 (NEU3) [µM] | IC50 (NEU1; target isoenzyme NEU1, 4MU-NANA substrate, read-out: IC50 [μM] NEU1) [µM] | Target (NEU1, NEU2, NEU3, NEU4)
CCCCCC(=O)NCC(O)C(O)C1OC(C(=O)O)=CC(O)[C@H]1NC(C)=O (stereo partly drawn) [compound 51, 5-Acetamido-9-hexanamido-2,6-anhydro-3,5-dideoxy-D-glycero-D-galacto-non-2-enonic acid] |  | 290 ± 30 |  | 83 ± 9 |  | NEU1
CCCCCc1cn(C[C@@H](O)[C@@H](O)[C@@H]2OC(C(=O)O)=C[C@H](O)[C@H]2NC(C)=O)nn1 [compound 63, 5-Acetamido-9-(4-pentyl)triazolyl-2,6-anhydro-3,5-dideoxy-d-glycero-d-galacto-non-2-enonic acid] |  | 2.6 ± 0.6 | NEU3/ NEU4 | 6.7 ± 1.2 |  | 
